PubChem BioAssay (NCI)
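Interpolation was linear, between the two tested concentrations surrounding the appropriate level; five concentrations were tested over 48 hours in 96-well plates. TGI: concentration producing complete growth inhibition.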

Tests used:
Assay in all cases: NCI tumour cell line growth inhibition, 48 h
MCF7 breast = tested on: MCF7 breast
SK-MEL-2 melanoma = tested on: SK-MEL-2 melanoma
HL-60(TB) leukemia = tested on: HL-60(TB) leukemia
PC-3 prostate = tested on: PC-3 prostate
MOLT-4 leukemia = tested on: MOLT-4 leukemia
HCT-15 colon = tested on: HCT-15 colon
MDA-MB-435 = tested on: MDA-MB-435
NCI-H460 lung = tested on: NCI-H460 lung
MDA-N = tested on: MDA-N
COLO 205 colon = tested on: COLO 205 colon
RPMI-8226 leukemia = tested on: RPMI-8226 leukemia
HOP-92 NSCLC = tested on: HOP-92 NSCLC
DU-145 prostate = tested on: DU-145 prostate
NCI/ADR-RES ovarian = tested on: NCI/ADR-RES ovarian
HCT-116 colon = tested on: HCT-116 colon
A498 renal = tested on: A498 renal
LOX IMVI melanoma = tested on: LOX IMVI melanoma
NCI-H226 lung = tested on: NCI-H226 lung
HOP-62 NSCLC = tested on: HOP-62 NSCLC

| SMILES | TGI (MCF7 breast) [µM] | TGI (SK-MEL-2 melanoma) [µM] | TGI (HL-60(TB) leukemia) [µM] | TGI (PC-3 prostate) [µM] | TGI (MOLT-4 leukemia) [µM] | TGI (HCT-15 colon) [µM] | TGI (MDA-MB-435) [µM] | TGI (NCI-H460 lung) [µM] | TGI (MDA-N) [µM] | TGI (COLO 205 colon) [µM] | TGI (RPMI-8226 leukemia) [µM] | TGI (HOP-92 NSCLC) [µM] | TGI (DU-145 prostate) [µM] | TGI (NCI/ADR-RES ovarian) [µM] | TGI (HCT-116 colon) [µM] | TGI (A498 renal) [µM] | TGI (LOX IMVI melanoma) [µM] | TGI (NCI-H226 lung) [µM] | TGI (HOP-62 NSCLC) [µM] |
| --- | --- | --- | --- | --- | --- | --- | --- | --- | --- | --- | --- | --- | --- | --- | --- | --- | --- | --- | --- |
| CN(CC(=O)O)c1ncc2c(n1)-c1ccccc1OC2 | > 100 | > 100 | > 100 | > 100 | > 100 | > 100 | > 100 | > 100 | > 100 | > 100 | > 100 | > 100 | > 100 | > 100 | > 100 | > 100 | > 100 |  |  |
| NCCC(=O)N[C@@H](Cc1cc(O)c(O)c(SCC(NC(=O)CC[C@H](N)C(=O)O)C(=O)NCC(=O)O)c1)C(=O)O (stereo partly specified) | > 50 | > 50 |  | > 50 | > 50 | > 50 | > 50 | > 50 | > 50 | > 50 | > 50 | > 50 | > 50 | > 50 | > 50 | > 50 |  | > 50 | > 50 |
| CC(=N\N=C\c1ccccn1)/C(C)=N/N=C(C)/C(C)=N/N=C/c1ccccn1 | > 100 | > 100 | > 100 | > 100 |  | > 100 | > 100 | > 100 | > 100 | > 100 | > 100 | > 100 | > 100 | > 100 | > 100 | > 100 | > 100 | > 100 | > 100 |
| Nc1ncnc2c1ncn2[C@H]1CC[C@@H](NO)C1 | > 100 | > 100 |  | > 100 | > 100 | > 100 | > 100 | > 100 | > 100 | > 100 | > 100 | > 100 | > 100 | > 100 | > 100 | > 100 | > 100 | > 100 | > 100 |
| NS(=O)(=O)c1ccc(Nc2c3ccccc3nc3c(C(=O)NCCO)cccc23)cc1 | 0.176 | 0.334 | > 1 | 0.432 | 0.0604 | 0.333 | 0.513 | 0.186 | 0.412 | 0.206 | 0.337 | 0.618 | 0.586 | > 1 | 0.412 | 0.229 | 0.267 | 0.296 | 0.443 |
| CSc1nc(SC)c2ncn(C3CC(Oc4ccc(C)cc4)C(COc4ccc(C)cc4)O3)c2n1 (stereo unspecified) | > 100 | > 100 | > 100 | > 100 |  | > 100 | > 100 | > 100 | > 100 | > 100 | > 100 | > 100 | > 100 | > 100 | > 100 | > 100 | > 100 | > 100 | > 100 |
| Nc1nc(Nc2ccccc2)sc1C(=O)c1cccs1 | 24.2 | 29.6 | 12.5 | 41.9 | 43.9 | 27.2 | 29.4 | 24.5 | 46.4 | 22.7 | 37 | 71 | 30.8 | 82 | 18.2 | 38.8 | 27.3 | 39.7 | > 65.5 |
| O[C@@H]1C[C@H]2N3CC[C@@]2(c2cc4c(cc2C3)OCO4)[C@H]2O[C@@H]12 | > 100 | > 100 | > 100 | > 100 | > 100 | > 100 | > 100 | > 100 | > 100 | 0.0204 | > 100 | > 100 | > 100 | > 100 | > 100 | > 100 | > 100 | 0.0792 | > 100 |
| O=c1c2cc([N+](=O)[O-])ccc2nc2n1CCCCC2 | > 100 | > 100 | > 100 | > 100 | > 100 | > 100 | > 100 | > 100 | > 100 | > 100 | > 100 | > 100 | > 100 | > 100 | > 100 | > 100 | > 100 | > 100 | > 100 |
| C1=NCCNCCNCCN=Cc2ccccc2OCc2cccc(n2)COc2ccccc21 | > 100 | > 100 | 73.7 | > 100 | > 100 | > 100 | 30 | > 100 | 45.3 | > 100 | > 100 | > 100 | > 100 | 60.4 | > 100 | > 100 |  | > 100 | > 100 |
| CN(C)CCCCN1c2ccccc2Sc2ccc(C(=O)c3ccccc3)cc21 | 3.05 | 6.59 | 3.97 | 6.4 | 6.31 | 9.27 | 3.51 | 5.46 | 6.74 | 3.13 | > 100 | 8.99 | 10.7 | 11.1 | 4.9 | 32.5 | 3.44 | 22.8 | 6.99 |
| CCOP(=O)(OCC)[C@H]1OC(C)(C)O[C@@H]1CO | > 100 | > 100 | > 100 | > 100 | > 100 | > 100 | > 100 | > 100 | > 100 | > 100 | > 100 | > 100 | > 100 | > 100 | > 100 | > 100 | > 100 |  | > 100 |
| COC(=O)C1C2CC3C1C3C2C(=O)OC (stereo unspecified) | > 100 | > 100 |  | > 100 | > 100 | > 100 | > 100 | > 100 | > 100 | > 100 |  | > 100 | > 100 | > 100 | > 100 | > 100 | > 100 | > 100 | > 100 |
